Experimental data published in US20230158067A1 (priority 2020, published 2023).
“And” between values parts separate entries of the source, which are not always exact repeats. Equal entries are not always repeated.

Columns and labels:
Vero cells = settings: uninfected Vero cells, MTT, 24 h
SARS-CoV2 = test: microbe, parasite or virus in culture; format: cell-based; settings: for Percentages of infection at 24 h: MOI 0.002, technical replicates
[1] = Severe acute respiratory syndrome coronavirus 2, Vero, 24 h

## CCC(CC)COC(=O)[C@H](C)N[P@](=O)(OC[C@H]1O[C@@](C#N)(c2ccc3c(N)ncnn23)[C@H](O)[C@@H]1O)Oc1ccccc1 [Remdesivir]
Vero cells
  TC90: 3.4416 µM
SARS-CoV2; 0.01 μM
  Percentages of infection at 24 h: 17.52% and 14.77% and 19.44%
SARS-CoV2; 0.03 μM
  Percentages of infection at 24 h: 20.60% and 10.69% and 23.44%
SARS-CoV2; 0.08 μM
  Percentages of infection at 24 h: 37.97% and 32.40% and 10.00%
SARS-CoV2; 0.25 μM
  Percentages of infection at 24 h: 8.05% and 17.17% and 39.50%
SARS-CoV2; 0.74 μM
  Percentages of infection at 24 h: 10.55% and 6.40% and 14.40%
SARS-CoV2; 2.22 μM
  Percentages of infection at 24 h: 2.04% and 1.54% and 1.69%
SARS-CoV2; 6.67 μM
  Percentages of infection at 24 h: 0.34% and 0.27% and 0.23%
SARS-CoV2; 20.00 μM
  Percentages of infection at 24 h: 0.78% and 0.24% and 0.27%
SARS-CoV2; [1]
  EC50: 0.654 µM
  EC90: 1690 µM
